Values belong to the compound of their own block, whether it stands above or below them.
Key:
CFTR [1] = molecular target: T1, CFTR (Mus musculus, UniProt P26361); assay: CDCA-induced fluid secretion in closed intestinal loops in mice; assay type: in vivo; conditions: for reduction in loop fluid accumulation: 5 mg/kg intraperitoneally 60 min before
T1 construct: a full-thickness fragment is mounted in a micro-Ussing chamber; from tissue; host or cells: CD1 mouse colon, full-thickness fragment
Procedure: CD1 mice (age 8-10 weeks) are given access to 5% dextrose water but not solid food for 24 h before experiments. Mice are administered (R)-BPO-27 (5 mg/kg) or vehicle (5% DMSO, 10% Kolliphor HS in saline) intraperitoneally 60 min before creation of closed intestinal (mid-jejunal or distal colonic) loops and injection of CDCA or PBS vehicle. […] See Cil, O., et al. (2017) Benzopyrimido-pyrrolo-oxazine-dione CFTR inhibitor (R)-BPO-27 for antisecretory therapy of diarrheas caused by bacterial enterotoxins. FASEB J 31, 751-760. For creation of loops, mice are anesthetized with isoflurane, and body temperature is maintained during surgery at 36-38° C. using a heating pad. A small abdominal incision is made to expose the intestine. For the mid-jejunal closed-loop model, 2-3 cm loops are created by sutures. Loops are injected with 100 μl PBS containing CDCA or PBS vehicle. The abdominal incision is closed with sutures, and mice are allowed to recover from anesthesia. In the colonic closed-loop model, mice are given an enema (500 μl of mineral oil) 12 hours before surgery to cleanse the colon of solids as previously reported (Haggie, P. M., et al. (2018) SLC26A3 inhibitor identified in small molecule screen blocks colonic fluid absorption and reduces constipation. JCI Insight 3, e121370) and a 1-2 cm closed loop is created by sutures. Intestinal loops are surgically removed at specified times, and loop length and weight is measured to quantify fluid secretion. In some experiments, CF mice (ΔF508 homozygous, age 8-10 weeks) are used.

CFTR [2] = molecular target: T2, CFTR (Homo sapiens, UniProt P13569); assay: Short-circuit current measurements in T84 cells (bile acid-induced secretory current); assay type: cell-based; design: short-circuit current provides a direct measure of apical CFTR Cl^− current; host or cells: T84 cells; conditions: for prosecretory response (increase in short-circuit current) to bile acid: bile acid added to both apical and basolateral bathing solutions; for block of the increase in short-circuit current following CDCA application: CDCA 0.75 mM both bathing solutions, inhibitor 10 μM
T2 sequence (P13569 whole entry): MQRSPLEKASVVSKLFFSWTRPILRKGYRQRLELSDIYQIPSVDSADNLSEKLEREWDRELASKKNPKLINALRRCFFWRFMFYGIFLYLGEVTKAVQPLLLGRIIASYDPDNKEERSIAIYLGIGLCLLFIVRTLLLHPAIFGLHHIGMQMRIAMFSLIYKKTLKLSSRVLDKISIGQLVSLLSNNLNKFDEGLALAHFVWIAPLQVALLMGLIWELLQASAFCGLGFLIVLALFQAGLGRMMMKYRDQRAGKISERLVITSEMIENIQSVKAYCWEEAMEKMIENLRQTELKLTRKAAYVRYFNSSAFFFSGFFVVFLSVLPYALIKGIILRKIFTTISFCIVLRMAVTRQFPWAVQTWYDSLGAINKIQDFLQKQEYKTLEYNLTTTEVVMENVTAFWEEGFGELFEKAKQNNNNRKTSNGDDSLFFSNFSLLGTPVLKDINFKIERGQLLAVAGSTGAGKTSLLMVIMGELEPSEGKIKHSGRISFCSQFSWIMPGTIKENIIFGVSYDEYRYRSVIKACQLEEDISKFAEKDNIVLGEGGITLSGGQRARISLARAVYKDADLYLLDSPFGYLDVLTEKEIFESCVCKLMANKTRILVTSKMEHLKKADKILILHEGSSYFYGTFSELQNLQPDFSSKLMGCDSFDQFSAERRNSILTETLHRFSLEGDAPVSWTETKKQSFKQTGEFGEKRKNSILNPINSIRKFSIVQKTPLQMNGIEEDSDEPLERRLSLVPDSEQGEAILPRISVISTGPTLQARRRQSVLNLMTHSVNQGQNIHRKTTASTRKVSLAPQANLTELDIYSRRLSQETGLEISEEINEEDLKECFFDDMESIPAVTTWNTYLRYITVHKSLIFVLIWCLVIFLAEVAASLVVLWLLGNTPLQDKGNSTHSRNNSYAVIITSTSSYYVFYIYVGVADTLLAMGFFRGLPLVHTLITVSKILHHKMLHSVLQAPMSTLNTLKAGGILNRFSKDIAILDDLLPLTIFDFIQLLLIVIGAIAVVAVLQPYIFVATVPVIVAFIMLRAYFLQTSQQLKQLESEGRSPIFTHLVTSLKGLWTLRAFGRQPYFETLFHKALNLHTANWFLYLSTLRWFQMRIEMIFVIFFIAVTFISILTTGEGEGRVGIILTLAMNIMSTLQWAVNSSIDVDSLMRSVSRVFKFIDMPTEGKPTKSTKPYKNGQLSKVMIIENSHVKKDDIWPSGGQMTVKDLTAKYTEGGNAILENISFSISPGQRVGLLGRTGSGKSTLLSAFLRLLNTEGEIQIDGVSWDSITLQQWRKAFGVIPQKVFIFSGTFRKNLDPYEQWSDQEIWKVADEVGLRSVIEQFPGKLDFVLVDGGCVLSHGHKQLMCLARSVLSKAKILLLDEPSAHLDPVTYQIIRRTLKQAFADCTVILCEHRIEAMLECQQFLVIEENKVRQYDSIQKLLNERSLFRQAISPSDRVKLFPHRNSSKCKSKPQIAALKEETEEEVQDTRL
Procedure: T84 cells (ATCC CCL-248) are cultured in a 1:1 mixture of DMEM/Ham's F-12 medium supplemented with 10% FBS, 100 U/mL penicillin and 100 μg/mL streptomycin. Cells are grown on Snapwell inserts (Costar Corning, Horseheads, N.Y.) at 37° C. in 5% CO2/95% air and used 7-14 days after plating.
T84 cells are mounted in Ussing chambers and bathed in symmetrical HCO3^−-buffered solution containing (in mM): 120 NaCl, 5 KCl, 1 MgCl2, 1 CaCl2), 10 D-glucose, 5 HEPES and 25 NaHCO3 (pH 7.4). The solutions are aerated with 95% O2/5% CO2 and maintained at 37° C. In one study, for measurement of apical Cl^− conductance, a basolateral to apical Cl^− gradient is applied in which the basolateral hemichamber contains (in mM): 120 NaCl, 1 MgCl2, 1 CaCl2, 10 D-glucose, 5 HEPES and 25 NaHCO3 (pH 7.4); in the apical solution 120 mM NaCl is replaced by 5 mM NaCl and 115 mM Na-gluconate, and the basolateral membrane is permeabilized with 250 µg/ml amphotericin B. Short-circuit current is measured using an EVC4000 multichannel voltage clamp (World Precision Instruments, Sarasota, Fla.).

CFTR [3] = molecular target: T2, CFTR; assay: Short-circuit current in primary human colonoid monolayer cultures; assay type: cell-based; design: Human cultures are generated from isolated intestinal crypts embedded in Matrigel; endogenous in cells; host or cells: primary human colonoid monolayers from three subjects; conditions: human colonoid monolayers
From the text: Human colonoid cultures are generated from de-identified tissue samples (other than age and sex) obtained from endoscopic or surgical procedures from three different subjects. Human cultures are generated from isolated intestinal crypts embedded in Matrigel (Corning, Tewksbury, Mass.) in 24-well plates and cultured in the presence of Wnt3A, R-spondin-1 and Noggin containing undifferentiated media (UDM) as described in Zachos, N. C. et. al (2016) Human enteroids/colonoids and intestinal organoids functionally recapitulate normal intestinal physiology and pathophysiology. J Biol Chem 291, 3759-3766; In, J., et al. (2016) Enterohemorrhagic Escherichia coli reduce mucus and intermicrovillar bridges in human stem cell-derived colonoids. Cell Mol Gastroenterol Hepatol 2, 48-62. Matrigel cultures in UDM media are used for the propagation of colonoids. To generate monolayer cultures, colonoids are triturated in Cultrex Organoid Harvesting Solution (Trevigen, Gaithersburg, Md.), and the fragments are collected by centrifugation and resuspended in UDM. Colonoid fragments (100 μL) are seeded onto 0.4 μm pore polyester membrane 24-well cell culture inserts (Transwell; Corning, Tewksbury, Mass.) pre-coated with human collagen IV (34 μg/mL; Millipore Sigma). […] Under these conditions, cultures reach confluency in 7-14 days as monitored by transepithelial resistance. […]

[4] = mice; 5 mg/kg intraperitoneally; cited from earlier work
CFTR [5] = molecular target: T1, CFTR; assay: Short-circuit current measurement in mouse distal colon (ex vivo)
From the text: For intestinal short-circuit current measurement, CD1 mice are anesthetized with isoflurane. The colon is removed, washed with ice-cold Krebs buffer, opened along the mesenteric border, and a full-thickness fragment is mounted in a micro-Ussing chamber (area 0.7 cm^2, World Precision Instruments). Hemichambers are filled with oxygenated Krebs-bicarbonate solution.

CFTR [6] = molecular target: T3, CFTR (Rattus norvegicus, UniProt P34158); assay: Rat model of bile acid diarrhea (mid-colonic CDCA infusion); assay type: in vivo
T3 construct: from tissue; host or cells: Sprague-Dawley rats in vivo, colon
T3 sequence (P34158 whole entry, the tested form may be a part): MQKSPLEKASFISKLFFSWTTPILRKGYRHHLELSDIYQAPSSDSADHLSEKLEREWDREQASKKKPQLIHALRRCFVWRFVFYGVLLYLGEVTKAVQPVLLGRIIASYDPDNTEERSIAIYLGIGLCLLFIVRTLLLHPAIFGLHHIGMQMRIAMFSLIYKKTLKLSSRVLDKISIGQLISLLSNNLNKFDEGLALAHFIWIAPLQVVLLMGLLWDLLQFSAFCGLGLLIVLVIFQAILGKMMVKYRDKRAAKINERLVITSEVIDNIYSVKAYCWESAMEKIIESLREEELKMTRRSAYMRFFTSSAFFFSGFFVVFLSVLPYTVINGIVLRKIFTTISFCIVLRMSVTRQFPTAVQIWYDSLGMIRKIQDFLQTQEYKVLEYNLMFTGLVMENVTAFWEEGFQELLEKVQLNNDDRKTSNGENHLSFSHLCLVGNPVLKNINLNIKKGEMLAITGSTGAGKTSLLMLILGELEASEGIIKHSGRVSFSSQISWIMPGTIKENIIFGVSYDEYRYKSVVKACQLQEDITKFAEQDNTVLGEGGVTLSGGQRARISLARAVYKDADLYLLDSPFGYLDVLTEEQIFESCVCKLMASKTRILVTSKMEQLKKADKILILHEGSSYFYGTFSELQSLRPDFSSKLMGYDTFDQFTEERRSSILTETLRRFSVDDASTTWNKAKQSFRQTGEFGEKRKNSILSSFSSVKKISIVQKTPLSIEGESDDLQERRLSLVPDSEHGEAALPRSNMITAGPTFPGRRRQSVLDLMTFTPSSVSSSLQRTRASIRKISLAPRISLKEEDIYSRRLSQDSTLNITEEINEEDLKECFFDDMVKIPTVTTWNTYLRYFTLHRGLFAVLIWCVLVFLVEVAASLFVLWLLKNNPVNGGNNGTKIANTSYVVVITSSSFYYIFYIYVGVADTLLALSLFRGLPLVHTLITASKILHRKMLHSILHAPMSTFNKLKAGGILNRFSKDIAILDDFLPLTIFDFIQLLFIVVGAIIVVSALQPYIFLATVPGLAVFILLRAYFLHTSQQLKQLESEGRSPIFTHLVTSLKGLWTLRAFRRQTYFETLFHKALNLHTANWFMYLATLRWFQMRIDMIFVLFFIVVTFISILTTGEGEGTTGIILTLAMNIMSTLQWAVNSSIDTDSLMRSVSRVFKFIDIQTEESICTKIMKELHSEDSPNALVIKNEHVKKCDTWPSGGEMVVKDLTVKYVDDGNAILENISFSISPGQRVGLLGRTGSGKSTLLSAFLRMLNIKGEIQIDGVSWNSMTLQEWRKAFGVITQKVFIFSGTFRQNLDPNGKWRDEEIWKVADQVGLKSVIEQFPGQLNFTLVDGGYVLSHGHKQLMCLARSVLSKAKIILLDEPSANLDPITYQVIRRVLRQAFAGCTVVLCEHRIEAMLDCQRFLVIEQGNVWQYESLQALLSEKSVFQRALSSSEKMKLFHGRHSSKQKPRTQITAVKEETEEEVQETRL
Procedure: Female Sprague-Dawley rats (age 8-10 weeks) are administered 500 μl CDCA (10 mM in PBS) or PBS vehicle by a mid-colonic infusion using a flexible plastic tube (15 gauge, 78 mm length, Instech Laboratories, Plymouth Meeting, Pa.). Rats are intraperitoneally administered (R)-BPO-27 (10 mg/kg) (or vehicle control) 30 min before infusion. (R)-BPO-27 is dissolved in saline containing 5% DMSO and 10% Kolliphor HS. Following the infusion, rats are placed individually in metabolic cages and given free access to water and food. Stool samples are collected prior to infusion (for baseline stool water content) and over 4 hours after the infusion. Stools are weighed immediately when visualized to determine wet weight. To determine stool water content, the stool samples are dried at 70° C. for 24 hours and water content is calculated as (wet weight−dry weight)/wet weight.

T84 cells = assay: Intracellular Ca2+ measurement by Fluo-4 fluorescence in T84 cells; assay type: cell-based; conditions: CDCA 0.75 or 1 mM, ATP or carbachol 100 μM, BAPTA-AM 30 μM pretreatment 30 min
Procedure: T84 cells are plated in 96-well black-walled microplates. Confluent cells are loaded with Fluo-4 NW (Invitrogen, Carlsbad, Calif.) at 72 h after plating. For Ca^2+ measurement Fluo-4 fluorescence is measured with a FluoStar fluorescence plate reader (BMG Lab Technologies, Durham, N.C.) at excitation/emission wavelengths of 485/538 nm. In some studies cells are pretreated for 30 min with BAPTA-AM. Ca^2+ measurement in human colonoid cultures is done in monolayers that are transduced with the fluorescent Ca^2+ sensor Adeno-GCsMP6s. For cAMP assay, T84 cells are grown in 24-well plates, treated for 30 min with CDCA and/or forskolin, lysed by repeating freeze/thaw, centrifuged to remove cell debris, and the supernatant is assayed for cAMP using the Parameter cAMP immunoassay kit according to the manufacturer's instructions (R&D Systems, Minneapolis, […].).

[7] = closed mid-jejunal loops, CDCA 10 mM

T1 sequence (P26361 whole entry, the tested form may be a part): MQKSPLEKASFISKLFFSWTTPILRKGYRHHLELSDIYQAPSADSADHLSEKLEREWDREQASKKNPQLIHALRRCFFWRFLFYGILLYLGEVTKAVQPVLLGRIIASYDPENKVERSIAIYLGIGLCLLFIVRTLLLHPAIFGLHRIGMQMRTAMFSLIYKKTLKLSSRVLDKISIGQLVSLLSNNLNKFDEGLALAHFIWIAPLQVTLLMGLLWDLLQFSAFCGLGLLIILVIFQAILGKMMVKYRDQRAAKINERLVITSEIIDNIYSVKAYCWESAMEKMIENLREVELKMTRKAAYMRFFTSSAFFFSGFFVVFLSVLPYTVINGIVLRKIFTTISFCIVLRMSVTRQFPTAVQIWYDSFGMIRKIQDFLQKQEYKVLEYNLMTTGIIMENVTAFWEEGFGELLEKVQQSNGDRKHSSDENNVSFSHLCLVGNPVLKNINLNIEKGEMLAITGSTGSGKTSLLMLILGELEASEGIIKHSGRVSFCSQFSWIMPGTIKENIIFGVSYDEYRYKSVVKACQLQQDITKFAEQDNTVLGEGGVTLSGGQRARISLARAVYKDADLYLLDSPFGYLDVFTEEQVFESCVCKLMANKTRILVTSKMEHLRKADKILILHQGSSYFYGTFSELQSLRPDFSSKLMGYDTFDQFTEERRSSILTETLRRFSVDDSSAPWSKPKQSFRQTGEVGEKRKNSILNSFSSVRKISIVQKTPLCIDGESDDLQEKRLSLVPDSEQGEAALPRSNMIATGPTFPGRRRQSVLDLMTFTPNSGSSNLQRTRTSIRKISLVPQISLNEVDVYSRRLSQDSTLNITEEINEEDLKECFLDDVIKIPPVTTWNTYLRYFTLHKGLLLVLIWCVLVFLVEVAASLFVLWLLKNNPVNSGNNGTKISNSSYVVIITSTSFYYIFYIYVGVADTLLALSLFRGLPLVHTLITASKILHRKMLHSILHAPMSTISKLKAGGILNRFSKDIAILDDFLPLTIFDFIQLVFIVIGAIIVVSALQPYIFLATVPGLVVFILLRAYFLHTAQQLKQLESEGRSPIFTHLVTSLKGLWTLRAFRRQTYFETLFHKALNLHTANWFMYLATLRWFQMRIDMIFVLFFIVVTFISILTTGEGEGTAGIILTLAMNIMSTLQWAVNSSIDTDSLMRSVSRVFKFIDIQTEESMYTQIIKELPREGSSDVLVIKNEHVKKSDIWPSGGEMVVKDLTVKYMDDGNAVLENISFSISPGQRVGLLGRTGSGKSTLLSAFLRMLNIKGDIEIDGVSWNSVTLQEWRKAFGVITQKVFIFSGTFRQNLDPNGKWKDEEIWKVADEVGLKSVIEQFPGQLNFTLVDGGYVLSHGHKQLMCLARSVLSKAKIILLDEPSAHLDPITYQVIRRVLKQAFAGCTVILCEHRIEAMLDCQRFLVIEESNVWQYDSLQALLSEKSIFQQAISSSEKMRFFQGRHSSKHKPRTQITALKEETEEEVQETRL

Compound: C[C@H](CCC(=O)O)[C@H]1CC[C@H]2[C@@H]3[C@H](O)C[C@@H]4C[C@H](O)CC[C@]4(C)[C@H]3C[C@H](O)[C@]12C [cholic acid, reference compound]
prosecretory response (increase in short-circuit current) to bile acid (CFTR [2]; T84 cells): No increase in short-circuit current

Compound: O=C(O)c1ccc(/C=C2\SC(=S)N(c3cccc(C(F)(F)F)c3)C2=O)cc1 [CFTRinh-172, 4-[[4-Oxo-2-thioxo-3-[3-(trifluoromethyl)phenyl]-5-thiazolidinylidene]methyl]benzoic acid, reference compound]
block of the increase in short-circuit current following CDCA application (CFTR [2]; T84 cells): fully blocked

Compound: C[C@H](CCC(=O)O)[C@H]1CC[C@H]2[C@@H]3[C@H](O)C[C@@H]4C[C@H](O)CC[C@]4(C)[C@H]3CC[C@]12C [CDCA, chenodeoxycholic acid, reference compound]
prosecretory response (increase in short-circuit current) to bile acid (CFTR [2]; T84 cells): robust secretory current
increase in short-circuit current (CFTR [5]; CDCA 1 mM added to apical bathing solution, mean±S.E.M., n=3): 5.2±1.4 μA/cm^2
increase in short-circuit current (in words) (CFTR [5]; CDCA added to basolateral bathing solution): No increase in short-circuit current
increase in stool water content (CFTR [6]; rats, mid-colonic infusion of CDCA 10 mM, stool over 4 hours): ~25%

Compound: CC(=O)OCOC(=O)CN(CC(=O)OCOC(C)=O)c1ccccc1OCCOc1ccccc1N(CC(=O)OCOC(C)=O)CC(=O)OCOC(C)=O [BAPTA-AM, 1,2-Bis(2-aminophenoxy)ethane-N,N,N′,N′-tetraacetic acid tetrakis(acetoxymethyl ester), reference compound]
block of Ca2+ elevations (T84 cells): largely blocked
reduction of CDCA-induced increase in short-circuit current by pretreatment (CFTR [3]; CDCA 0.5 mM, BAPTA-AM 30 μM pretreatment 20 min): greatly reduced
block of CDCA-induced increase in short-circuit current by pretreatment (CFTR [2]; T84 cells, CDCA 1 mM, BAPTA-AM 30 μM pretreatment 25 min): largely blocked

Further lines, with some results ahead:

effect on loop fluid accumulation (in words) (CFTR [1]; [7]): no significant effect
Compound: Cn1c(=O)c2c(-c3ccccc3)n3c(c2n(C)c1=O)[C@@H](c1ccc(Br)o1)Oc1ccc(C(=O)O)cc1-3 [(S)-BPO-27, 6-(5-Bromofuran-2-yl)-7,9-dimethyl-8,10-dioxo-11-phenyl-7,8,9,10-tetrahydro-6H-benzo[b]pyrimido [4′,5′:3,4]pyrrolo [1,2-d][1,4]oxazine-2-carboxylic acid, reference compound]

reversal of CDCA-induced increase in short-circuit current (CFTR [3]; apical CDCA, (R)-BPO-27 5 μM): reversed
reduction in loop fluid accumulation (CFTR [1]; closed colonic loops, CDCA 2.5, 10 mM): ~70%
reduction in loop fluid accumulation (CFTR [1]; [7]): 55%
block of the increase in short-circuit current following CDCA application (CFTR [2]; T84 cells): fully blocked
block of secretory current produced by CDCA, DCA and their taurine conjugates (CFTR [2]; T84 cells, bile acids in apical and basolateral solutions, (R)-BPO-27 10 μM): blocked
IC50 (CFTR [2]; T84 cells, concentration-dependence studies, data not shown, read-out: IC50 for inhibition of CDCA-induced short-circuit current): < 1 µM
block of increased current after CDCA followed by forskolin (CFTR [2]; T84 cells, forskolin 10 μM, (R)-BPO-27 10 μM): fully blocked
inhibition of CDCA-activated apical CFTR Cl− current (CFTR [2]; basolateral membrane-permeabilized T84 monolayers, Cl− gradient, apical CDCA 0.75 or 1 mM, (R)-BPO-27 10 μM): inhibition by (R)-BPO-27 is confirmed
change in short-circuit current after (R)-BPO-27 (CFTR [5]; after apical CDCA 1 mM, (R)-BPO-27 10 μM, mean±S.E.M., n=3): −5.2±1.7 μA/cm^2
reversal of CDCA-induced short-circuit current (CFTR [5]; apical CDCA 1 mM, (R)-BPO-27 10 μM): fully reversed
effect on stool quantity or water content (CFTR [6]; rats receiving mid-colonic infusion of PBS, 10 mg/kg intraperitoneally): does not affect
inhibition of the increase in stool water content (CFTR [6]; rats, mid-colonic CDCA infusion 10 mM, 10 mg/kg intraperitoneally 30 min before, stool over 4 hours): ~55%
Compound: Cn1c(=O)c2c(-c3ccccc3)n3c(c2n(C)c1=O)[C@H](c1ccc(Br)o1)Oc1ccc(C(=O)O)cc1-3 [(R)-BPO-27, 6-(5-Bromofuran-2-yl)-7,9-dimethyl-8,10-dioxo-11-phenyl-7,8,9,10-tetrahydro-6H-benzo[b]pyrimido [4′,5′:3,4]pyrrolo [1,2-d][1,4]oxazine-2-carboxylic acid]
serum levels [4]: therapeutic serum levels for several hours

From patent US20220280514A1, “METHODS OF TREATING BILE ACID DIARRHEA” (THE REGENTS OF THE UNIVERSITY OF CALIFORNIA, priority 2019, published 2022)
